Data from paper PMC9234964, “Design, Synthesis, and Biological Evaluation of a Novel Series of 4-Guanidinobenzoate Derivatives as Enteropeptidase Inhibitors with Low Systemic Exposure for the Treatment of Obesity” (Journal of Medicinal Chemistry, 2022).
Structures can show the parent of a compound that is named as a salt. Where two headings read alike, the source gives them in different places.

Experiments:
human enteropeptidase [1] = target: T1, human enteropeptidase (Homo sapiens, UniProt P98073); experiment: Human enteropeptidase enzyme assay; type: biochemical
T1 construct: purchased ITSI-Biosciences, LLC #REN-260
Description: Human recombinant enteropeptidase (#REN-260, ITSI-Biosciences, LLC) was diluted with an assay buffer (50 mM tricine (pH 8.0), 0.01(w/v)% Tween 20, 10 mM CaCl2) to prepare a 24 mU/mL enzyme solution. Subsequently, 5FAM–Abu–[…]CPQ2)–Lys–Lys–NH2 (purity: 97.2%, CPC Scientific, Inc.) was diluted with an assay buffer to prepare a 2.1 μM substrate solution. Compounds were dissolved in DMSO and then diluted in the assay buffer. The compound solution (5 μL/well) and the substrate solution (5 μL/well) were added to a 384-well black plate (#784076, Greiner Bio-One) and mixed. Then, the enzyme solution (5 μL/well) was added to the plate and mixed to start the reaction. The fluorescence intensity was measured at an excitation wavelength of 485 nm and a fluorescence wavelength of 535 nm using a fluorescence plate reader EnVision (PerkinElmer Inc.). Also, the same reaction as above was performed except that the test compound was not added (test compound non-supplemented group). In addition, the same reaction as above was performed except that neither the test compound nor the enzyme was added (control group).
Inhibition rate (%) = (1 – (fluorescence intensity of the test compound supplemented group – fluorescence intensity of the control group)/(fluorescence intensity of the test compound non-supplemented group – fluorescence intensity of the control group)) × 100.

[2] = PAMPA (parallel artificial membrane permeability assay); type: in vitro ADME; details: for Papp: PAMPA
human enteropeptidase [3] = target: T1, human enteropeptidase; experiment: Dissociation assay (recovery of active enzyme after rapid dilution); type: biochemical; details: rapid dilution after 2 h preincubation of compound and enzyme
From the text: Although not all reaction constants for 1c could be identified, the in vitro IC50 value could be used as an indicator of the combination of k1, k–1, and k2. In this case, the IC50 value of a compound is derived from its affinity for enteropeptidase (k1 and k–1) and its reactivity against enteropeptidase (k2). […] As the affinity of a compound for enteropeptidase is expected to largely contribute to the IC50 value based on initial velocities (IC50(initial)) relative to the IC50 value based on the steady state (IC50(app)), we performed chemical modifications based on IC50(initial). […] Because T1/2 can be an indicator of k3, we focused on compounds with low IC50(initial) values and long T1/2 values.
For dissociation assay, compounds were dissolved in DMSO and then diluted in assay buffer (50 mM Tricine pH 8.0, 0.01(w/v)% Tween20, 10 mM CaCl2). 10 μL of compound solution was added in 96-well plate (corning), and then, 10 μL of 100 mU/mL human recombinant enteropeptidase (ITSI-Biosciences) solution was added into the plate and incubated at room temperature for 2 h. […] After incubation, 2 μL of the compound-enzyme mixture was transferred to a 96-well black plate (Corning) and 200 μL of substrate solution (3 μM 5FAM–Abu–[…]CPQ2)–Lys–Lys–NH2 (CPC Scientific)) was added into the well. By rapid dilution, the inhibitor concentration went to 10-fold below the IC50 from 10-fold above the IC50. The fluorescence was measured each 2 min at excitation wavelength 485 nm and emission wavelength 535 nm by EnVision (Perkin Elmer). The progress curves were fitted to following equation to determine the values for koff and dissociation half-life T1/2 according to the following equations. [drawing 4] 1 where t is time and F is fluorescence from initial rate vo to steady state rate vs. [drawing 5] 2

High-Fat-Diet-Fed Mice = experiment: Increase in fecal protein output in high-fat-diet-fed mice; type: in vivo, mouse; details: 10 mg/kg, oral
Description: A high-fat diet (HFD)-fed mouse (D12079B diet, male, 14–21 weeks old) was used for the in vivo assay. For compound screening, mice were orally administered with either the test compound (10 mg/kg) or 0.5% methylcellulose (MC) as a vehicle control. For the assessment of efficacy by systemic exposure of the compound, mice were subcutaneously administered with compound 2a (10 mg/kg) or saline as a vehicle control and compared with those administered oral treatment (60 mg/kg). Doses were selected to achieve equivalent systemic exposure as the area under the curve over 24 h based on pharmacokinetic data of both oral and subcutaneous administration. Whole feces were collected overnight, and the fecal protein output was evaluated as described previously.[33]

[4] = Aqueous stability at pH 1.2/6.8; type: physicochemical; details: 24 h; for stability at pH 1.2 (% decomposed): pH 1.2, 37 °C; for stability at pH 6.8 (% decomposed): pH 6.8, 37 °C
Description: Sample solutions in pH 1.2/6.8 media (first/second fluids for the disintegration test in the Japanese Pharmacopoeia 17th edition, including 10% dimethyl sulfoxide if needed, 10 μg/mL) were prepared for the compounds and incubated at 37 °C. The sample solutions were measured initially and at 24 h using HPLC, and peak analysis was conducted. Residual contents (%) of the compounds in pH 1.2/6.8 media at 37 °C after 24 h of incubation of the initial solutions were calculated using the peak areas.

[5] = Kinetic aqueous solubility at pH 1.2/6.8; type: physicochemical; details: aqueous medium, kinetic from dmso stock
DIO mice = details: growth phase; cited from earlier work
[6] = 6 min, supplement csv, unit inferred, read-out: human enteropeptidase IC50 (6 min)
[7] = 120 min, supplement csv, unit inferred, read-out: human enteropeptidase IC50 (120 min)
[8] = 6 min incubation of enzyme, substrate and compound at room temperature, 95% confidence intervals in parentheses, read-out: Human enteropeptidase IC50(initial)
[9] = 120 min incubation of enzyme, substrate and compound at room temperature, 95% confidence intervals in parentheses, read-out: Human enteropeptidase IC50(app)
[10] = pH 1.2, simulated gastric fluid, read-out: Kinetic aqueous solubility at pH 1.2
[11] = pH 6.8, aqueous buffer, read-out: Kinetic aqueous solubility at pH 6.8

T1 sequence (P98073 whole entry): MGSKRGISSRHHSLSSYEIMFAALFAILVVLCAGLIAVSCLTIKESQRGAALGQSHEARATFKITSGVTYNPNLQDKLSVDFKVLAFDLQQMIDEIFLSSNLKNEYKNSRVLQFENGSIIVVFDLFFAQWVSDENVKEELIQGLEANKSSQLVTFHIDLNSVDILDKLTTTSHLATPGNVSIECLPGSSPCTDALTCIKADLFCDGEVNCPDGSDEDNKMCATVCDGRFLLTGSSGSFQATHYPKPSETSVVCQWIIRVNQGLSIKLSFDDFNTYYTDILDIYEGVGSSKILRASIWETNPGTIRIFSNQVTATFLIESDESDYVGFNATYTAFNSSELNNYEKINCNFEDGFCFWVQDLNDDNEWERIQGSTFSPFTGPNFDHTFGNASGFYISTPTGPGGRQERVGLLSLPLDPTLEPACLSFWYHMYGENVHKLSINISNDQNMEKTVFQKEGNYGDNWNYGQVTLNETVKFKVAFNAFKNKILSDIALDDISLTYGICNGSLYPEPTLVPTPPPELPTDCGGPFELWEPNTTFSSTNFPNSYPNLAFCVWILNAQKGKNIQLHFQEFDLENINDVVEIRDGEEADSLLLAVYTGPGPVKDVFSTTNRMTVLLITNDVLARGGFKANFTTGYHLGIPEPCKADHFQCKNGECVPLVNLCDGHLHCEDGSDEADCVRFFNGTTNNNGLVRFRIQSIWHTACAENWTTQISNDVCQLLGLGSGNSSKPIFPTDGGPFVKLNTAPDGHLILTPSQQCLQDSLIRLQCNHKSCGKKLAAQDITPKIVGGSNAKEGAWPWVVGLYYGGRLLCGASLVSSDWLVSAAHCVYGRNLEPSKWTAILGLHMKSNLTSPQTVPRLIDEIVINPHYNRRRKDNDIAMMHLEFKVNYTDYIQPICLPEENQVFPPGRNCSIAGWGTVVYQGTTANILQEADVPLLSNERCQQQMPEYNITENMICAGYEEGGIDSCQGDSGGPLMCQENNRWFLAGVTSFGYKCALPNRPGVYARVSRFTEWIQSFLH

SMILES	IC50 (human enteropeptidase [1]; [8])	IC50 (human enteropeptidase [1]; [9])	fecal protein output (fold of 2a) (High-Fat-Diet-Fed Mice)	other results
Cc1cc(OC(=O)c2ccc(NC(=N)N)cc2)no1.Cl [1a]				IC50 (human enteropeptidase [1]; [6]): 1500 nM; Papp ([2]; pH 7.4, read-out: PAMPA at pH 7.4): 0.3 ×10⁻⁶ cm/s; Papp ([2]; pH 5.0, read-out: PAMPA at pH 5.0): 0.5 ×10⁻⁶ cm/s
CS(=O)(=O)O.N=C(N)Nc1ccc(C(=O)Oc2ccccc2)cc1 [1b]				IC50 (human enteropeptidase [1]; [6]): 5600 nM; IC50 (human enteropeptidase [1]; [7]): 400 nM; PAMPA at pH 5.0 ([2]; pH 5.0): <2 nm/sec; PAMPA at pH 7.4 ([2]; pH 7.4): <2 nm/sec
N=C(N)Nc1ccc(C(=O)Oc2ccc(CC(=O)NCC(=O)O)cc2)cc1.O=C(O)C(F)(F)F [1c, N-({4-[(4-Carbamimidamidobenzoyl)oxy]phenyl}acetyl)glycine Trifluoroacetic Acid Salt]				IC50 (human enteropeptidase [1]; [6]): 540 nM; IC50 (human enteropeptidase [1]; [7]): 30 nM; PAMPA at pH 5.0 ([2]; pH 5.0): 2 nm/sec; PAMPA at pH 7.4 ([2]; pH 7.4): 2 nm/sec
N=C(N)Nc1ccc(C(=O)Oc2ccc(CC(=O)N[C@@H](CC(N)=O)C(=O)O)cc2)cc1 [2b, N^2-({4-[(4-Carbamimidamidobenzoyl)oxy]phenyl}acetyl)-L-asparagine Trifluoroacetic Acid Salt]	310 nM	23 nM		
N=C(N)Nc1ccc(C(=O)Oc2ccc(CC(=O)N[C@@H](CCC(=O)O)C(=O)O)cc2)cc1 [2c, N-({4-[(4-Carbamimidamidobenzoyl)oxy]phenyl}acetyl)-L-glutamic Acid Hydrochloride]	120 nM	7.9 nM		
Cc1cc(C(=O)Oc2ccc(CC(=O)N[C@@H](CC(=O)O)C(=O)O)cc2)ccc1NC(=N)N [3a, N-({4-[(4-Carbamimidamido-3-methylbenzoyl)oxy]phenyl}acetyl)-L-aspartic Acid]	> 3300 nM	680 nM		fold decrease in IC50(initial) relative to 2a (human enteropeptidase [1]; 6 min, methyl group at the 3-position): more than 30 fold
Cc1cc(NC(=N)N)ccc1C(=O)Oc1ccc(CC(=O)N[C@@H](CC(=O)O)C(=O)O)cc1 [3b, N-({4-[(4-Carbamimidamido-2-methylbenzoyl)oxy]phenyl}acetyl)-L-aspartic Acid]	940 nM	54 nM		T1/2, half-time of dissociation from human enteropeptidase (human enteropeptidase [3]): >120 min
N=C(N)Nc1ccc(C(=O)Oc2ccc(CC(=O)N[C@@H](CC(=O)O)C(=O)O)cc2)c(Cl)c1 [3c, N-({4-[(4-Carbamimidamido-2-chlorobenzoyl)oxy]phenyl}acetyl)-L-aspartic Acid]	57 nM	5.6 nM		T1/2, half-time of dissociation from human enteropeptidase (human enteropeptidase [3]): 14 min
N=C(N)Nc1ccc(C(=O)Oc2ccc(CC(=O)N[C@@H](CC(=O)O)C(=O)O)cc2)c(F)c1 [3d, N-({4-[(4-Carbamimidamido-2-fluorobenzoyl)oxy]phenyl}acetyl)-L-aspartic Acid]	7.4 nM	0.81 nM		T1/2, half-time of dissociation from human enteropeptidase (human enteropeptidase [3]): 6.1 min
N=C(N)Nc1ccc(C(=O)Oc2cccc(CC(=O)N[C@@H](CC(=O)O)C(=O)O)c2)cc1.O=C(O)C(F)(F)F [4a, N-({3-[(4-Carbamimidamidobenzoyl)oxy]phenyl}acetyl)-L-aspartic Acid Trifluoroacetic Acid Salt]	32 nM	1.6 nM	0.97 fold of 2a	stability at pH 1.2 (% decomposed) [4]: 2.8 % decomposed; stability at pH 6.8 (% decomposed) [4]: 5.8 % decomposed; solubility kinetic [5, 10]: > 86 µg/mL; solubility kinetic [5, 11]: > 92 µg/mL
N=C(N)Nc1ccc(C(=O)Oc2cccc(C(=O)N[C@@H](CC(=O)O)C(=O)O)c2)cc1.O=C(O)C(F)(F)F [4b, N-{3-[(4-Carbamimidamidobenzoyl)oxy]benzoyl}-L-aspartic Acid Trifluoroacetic Acid Salt]	13 nM	0.82 nM	0.82 fold of 2a	stability at pH 1.2 (% decomposed) [4]: 3.9 % decomposed; stability at pH 6.8 (% decomposed) [4]: 8.6 % decomposed; solubility kinetic [5, 10]: > 91 µg/mL; solubility kinetic [5, 11]: > 89 µg/mL
N=C(N)Nc1ccc(C(=O)Oc2ccc(C(=O)N[C@@H](CC(=O)O)C(=O)O)cc2)cc1.O=C(O)C(F)(F)F [4c, N-{4-[(4-Carbamimidamidobenzoyl)oxy]benzoyl}-L-aspartic Acid Trifluoroacetic Acid Salt]	65 nM	3.2 nM	0.88 fold of 2a	solubility kinetic [5, 10]: 69 µg/mL; solubility kinetic [5, 11]: > 88 µg/mL
N=C(N)Nc1ccc(C(=O)Oc2ccc3c(c2)OC(CC(=O)N[C@@H](CC(=O)O)C(=O)O)C3)cc1 (stereo partly drawn) [5a, N-({6-[(4-Carbamimidamidobenzoyl)oxy]-2,3-dihydro-1-benzofuran-2-yl}acetyl)-L-aspartic Acid]	180 nM	14 nM		
N=C(N)Nc1ccc(C(=O)Oc2cccc(C3=NO[C@@](CC(=O)O)(C(=O)O)C3)c2)cc1 [6c, (5S)-3-{3-[(4-Carbamimidamidobenzoyl)oxy]phenyl}-5-(carboxymethyl)-4,5-dihydro-1,2-oxazole-5-carboxylic Acid]	26 nM	1.8 nM	1.23 fold of 2a	
N=C(N)Nc1ccc(C(=O)Oc2ccc3c(c2)OC[C@@H]3CC(=O)N[C@@H](CC(=O)O)C(=O)O)cc1 [(R)-5b, N-({(3R)-6-[(4-Carbamimidamidobenzoyl)oxy]-2,3-dihydro-1-benzofuran-3-yl}acetyl)-L-aspartic Acid]	84 nM	7.7 nM	1.26 fold of 2a	
CC(=O)N[C@@H](C)C(=O)N[C@@H](Cc1ccccc1)C(=O)N[C@@H](CCCCN)B1O[C@@H]2C[C@@H]3C[C@@H](C3(C)C)[C@]2(C)O1 [OBE-2008]				rate of body weight gain (DIO mice): significantly reduced
